Data reported in the supplement of paper PMC11061612.

Key:
[1] = tested on: NCI-H524 (Small Cell Lung Carcinoma); assay: combination Emax (second highest fraction inhibited in the dose matrix, 72 h); higher = more inhibition; extreme values may be limits of the assay
Procedure, shortened: (§1)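 After 24 hours at 37°C and 5% CO2 in 1536-well plates, cells in DMEM/F12 or RPMI plus 10% FBS received two-drug dose matrices for 72 hours. Viability came from CellTiter-Glo 2.0 luminescence and was scaled as inhibition, anchored at 0 by vehicle wells and at 1 by blank wells. Combination Emax is taken as the second-highest inhibition in the matrix, and Bliss excess as the observed combination effect less EA + EB − EA·EB, with EA and EB the single-agent effects.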

LOXIMVI (Melanoma) = assay: as above
Procedure, shortened: as §1

[2] = tested on: BE-13 (T-Lymphoblastic Leukemia); assay: as above
Procedure, shortened: as §1

GAMG (Glioblastoma) = assay: as above
Procedure, shortened: as §1

[3] = tested on: MHH-CALL-2 (B-Lymphoblastic Leukemia); assay: Bliss excess, mean over the matrix (fraction); higher = more synergy
Procedure, shortened: as §1

[4] = tested on: CAL-33 (Oral Cavity Carcinoma); assay: combination Emax (second highest fraction inhibited in the dose matrix, 72 h); higher = more inhibition; extreme values may be limits of the assay
Procedure, shortened: as §1

CAL-72 (Osteosarcoma) = assay: as above
Procedure, shortened: as §1

[5] = tested on: MHH-CALL-2 (B-Lymphoblastic Leukemia); assay: as above
Procedure, shortened: as §1

NCI-H2722 (Mesothelioma) = assay: as above
Procedure, shortened: as §1

[6] = tested on: HeLa (Cervical Carcinoma); assay: as above
Procedure, shortened: as §1
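For Bliss excess, mean over the matrix in this document: after 72 h of two-drug dosing.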

Structure (SMILES)	combination Emax [1]	combination Emax (LOXIMVI (Melanoma))	combination Emax [2]	combination Emax (GAMG (Glioblastoma))	Bliss excess [3]	combination Emax [4]	combination Emax (CAL-72 (Osteosarcoma))	combination Emax [5]	combination Emax (NCI-H2722 (Mesothelioma))	combination Emax [6]
CN(CCO)CC[C@H](CSc1ccccc1)Nc1ccc(S(=O)(=O)NC(=O)c2ccc(N3CCC([C@@H](O)c4ccccc4-c4ccc(Cl)cc4)CC3)cc2)cc1S(=O)(=O)C(F)(F)F [AZD4320] + CC(=O)O[C@H]1C(=O)[C@@]2(C)[C@H]([C@H](OC(=O)c3ccccc3)[C@]3(O)C[C@H](OC(=O)[C@H](O)[C@@H](NC(=O)c4ccccc4)c4ccccc4)C(C)=C1C3(C)C)[C@]1(OC(C)=O)CO[C@@H]1C[C@@H]2O [Paclitaxel] (first compound max 1 µM, 7x7, partner max 3 µM)	1	0.955	1	1						
CN(CCO)CC[C@H](CSc1ccccc1)Nc1ccc(S(=O)(=O)NC(=O)c2ccc(N3CCC([C@@H](O)c4ccccc4-c4ccc(Cl)cc4)CC3)cc2)cc1S(=O)(=O)C(F)(F)F [AZD4320] + CCN(CCO)CCCOc1ccc2c(Nc3cc(CC(=O)Nc4cccc(F)c4)[nH]n3)ncnc2c1 [AZD2811] (first compound max 1 µM, 7x7, partner max 1 µM)	0.995	0.443	1	0.845	0.138	0.853	0.373	0.538	0.401	0.192
CN(CCO)CC[C@H](CSc1ccccc1)Nc1ccc(S(=O)(=O)NC(=O)c2ccc(N3CCC([C@@H](O)c4ccccc4-c4ccc(Cl)cc4)CC3)cc2)cc1S(=O)(=O)C(F)(F)F [AZD4320] + Nc1ccn([C@@H]2O[C@H](CO)[C@@H](O)C2(F)F)c(=O)n1 [Gemcitabine] (first compound max 1 µM, 7x7, partner max 0.3 µM)	0.906	0.925	1	0.889			0.854			
COc1nnc2ccc(N3CCC(c4ccc(OCCN5CCN(C)C(=O)[C@H]5C)cc4)CC3)nn12 [AZD5153] + CN(CC[C@H](CSC1=CC=CC=C1)NC2=C(C=C(C=C2)S(=O)(=O)NC(=O)C3=CC=C(C=C3)N4CCC(CC4)[C@H](C5=CC=CC=C5C6=CC=C(C=C6)Cl)O)S(=O)(=O)C(F)(F)F)CCO [AZD4320] (first compound max 1 µM, 7x7, partner max 1 µM)					0.0512	0.343		0.688	0.774	0.433
CC(=O)c1c(C)c2cnc(Nc3ccc(N4CCNCC4)cn3)nc2n(C2CCCC2)c1=O [Palbociclib] + CN(CC[C@H](CSC1=CC=CC=C1)NC2=C(C=C(C=C2)S(=O)(=O)NC(=O)C3=CC=C(C=C3)N4CCC(CC4)[C@H](C5=CC=CC=C5C6=CC=C(C=C6)Cl)O)S(=O)(=O)C(F)(F)F)CCO [AZD4320] (first compound max 10 µM, 7x7, partner max 1 µM)					-0.0428	0.364		0.436	0.283	0.117
N#Cc1cnc(Nc2cc(NC[C@H]3CNCCO3)c(C(F)(F)F)cn2)cn1 [SRA737] + C=CCn1c(=O)c2cnc(Nc3ccc(N4CCN(C)CC4)cc3)nc2n1-c1cccc(C(C)(C)O)n1 [AZD1775] (first compound max 10 µM, partner max 1 µM)	0.912	0.562	0.993	0.726			0.88			
N#Cc1cnc(Nc2cc(NC[C@H]3CNCCO3)c(C(F)(F)F)cn2)cn1 [SRA737] + CCc1c2c(nc3ccc(O)cc13)-c1cc3c(c(=O)n1C2)COC(=O)[C@]3(O)CC [SN-38] (first compound max 10 µM, 7x7, partner max 0.3 µM)	0.938	0.859	0.99	0.878			0.91			
N#Cc1cnc(Nc2cc(NC[C@H]3CNCCO3)c(C(F)(F)F)cn2)cn1 [SRA737] + Nc1ccn([C@@H]2O[C@H](CO)[C@@H](O)C2(F)F)c(=O)n1 [Gemcitabine] (first compound max 10 µM, 7x7, partner max 0.3 µM)	1	0.881	1	0.892			0.72			
C[C@@H](c1ccc2nccn2c1)n1nnc2ncc(-c3cnn(C)c3)nc21 [Savolitinib] + CN(CC[C@H](CSC1=CC=CC=C1)NC2=C(C=C(C=C2)S(=O)(=O)NC(=O)C3=CC=C(C=C3)N4CCC(CC4)[C@H](C5=CC=CC=C5C6=CC=C(C=C6)Cl)O)S(=O)(=O)C(F)(F)F)CCO [AZD4320] (first compound max 1 µM, 7x7, partner max 1 µM)					-0.0252	0.222		0.454	0.308	0.13
